Measurements reported in patent US20050186569A1, “Nucleic acid-associated proteins” (priority 2001, published 2005).

Legend:
[1] = system: SEQ ID NO:108 expression in HMVECdNeo cells; experiment: Microarray RNA expression of HMVECdNeo cells treated with TNF-α versus untreated cells; type: cell-based, human; conditions: TNF-α 10 ng/ml for 2, 4, 8, and 24 hours, result at the last three time points, versus untreated (0 hour)
Procedure: (§1) Total RNA is isolated from tissue samples using the guanidinium thiocyanate method and poly(A)^+ RNA is purified using the oligo-(dT) cellulose method. Each poly(A)^+ RNA sample is reverse transcribed using MMLV reverse-transcriptase, 0.05 pg/μl oligo-(dT) primer (21mer), 1× first strand buffer, 0.03 units/μl RNase inhibitor, 500 μM dATP, 500 μM dGTP, 500 μM dTTP, 40 μM dCTP, 40 μM dCTP-Cy3 (BDS) or dCTP-Cy5 (Amersham Biosciences). The reverse transcription reaction is performed in a […] containing 200 ng poly(A)^+ RNA with GEMBRIGHT kits (Incyte Genomics). Specific control poly(A)^+ RNAs are synthesized by in vitro transcription from non-coding yeast genomic DNA. […]
(§2) Sequences of the present invention are used to generate array elements. […] Array elements are amplified in thirty cycles of PCR from an initial quantity of 1-2 ng to a final quantity greater than 5 μg. […]
(§3) Reporter-labeled hybridization complexes are detected with a microscope equipped with an Innova 70 mixed gas 10 W laser (Coherent, Inc., Santa Clara Calif.) capable of generating spectral lines at 488 nm for excitation of Cy3 and at 632 nm for excitation of Cy5. […]
(§4) A grid is superimposed over the fluorescence signal image such that the signal from each spot is centered in each element of the grid. […]

[2] = system: SEQ ID NO:100 expression in HMVECdNeos; experiment: Microarray expression analysis of HMVECdNeos treated with TNF-α versus untreated cells; type: cell-based, human; conditions: HMVECdNeos at 85% confluence treated 1, 2, 4, 8, and 24 hours with TNF-α, versus untreated (0 hour)
Procedure: as §1, §2, §3, §4

## TNF-α
[1]
  expression of SEQ ID NO:108 (underexpressed): at least two-fold
[2]
  expression of SEQ ID NO:100: decreased expression
